Patent US20220119493A1, “IL-7R-ALPHA BINDING COMPOUNDS” (MEDIKINE, INC., priority 2020, published 2022)
pEC50, pIC50: −log10 of the molar value.

What was measured:
IL-7Rα = target: T1, IL-7Rα (Homo sapiens, UniProt P16871); assay: Competitive binding ELISA bn407:NA-HRP; conditions: bn407:NA-HRP 10 nMf; SEQ ID NOS: 520-534 with two glycines (-GG-) on the carboxyl terminus
T1 construct: Fc; purchased ACRObiosystems, Inc. ILB-H5258

IL-7Rα subunit = target: T2, IL-7Rα subunit (Homo sapiens, UniProt P16871); assay: Phage ELISA competition assay; conditions: read-out: IC50, binding to the unique binding site on the IL-7Rα subunit
T2 construct: Fc; purchased ACRObiosystems, Inc. ILB-H5258
T2 sequence (P16871 21-236): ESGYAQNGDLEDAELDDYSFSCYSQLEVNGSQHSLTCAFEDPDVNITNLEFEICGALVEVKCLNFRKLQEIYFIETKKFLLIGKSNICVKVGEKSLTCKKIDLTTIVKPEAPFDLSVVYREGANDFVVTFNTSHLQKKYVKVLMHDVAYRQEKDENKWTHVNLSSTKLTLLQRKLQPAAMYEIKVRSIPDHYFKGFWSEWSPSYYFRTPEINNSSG

CD4 and CD8 T-cells = assay: Ki-67 proliferation assay in CD4 and CD8 T-cells; format: cell-based; conditions: human PBMCs, 3 days; hIL-7 comparator

T1 sequence (P16871 21-236): as above

Work on `CC[C@H](C)[C@H](NC(=O)[C@H](CCCNC(=N)N)NC(=O)[C@H](Cc1c[nH]cn1)NC(=O)[C@@H](N)C(C)C)C(=O)N1CCC[C@H]1C(=O)N[C@@H](Cc1c[nH]c2ccccc12)C(=O)N[C@H]1CSSC[C@@H](C(=O)N[C@@H](C)C(=O)N[C@@H](Cc2c[nH]c3ccccc23)C(=O)N[C@@H](CC(C)C)C(=O)N[C@@H](CCCNC(=N)N)C(=O)N[C@@H](CCC(N)=O)C(=O)N[C@@H](CCSC)C(=O)NCC(=O)NCC(=O)O)NC(=O)[C@H](CCC(N)=O)NC(=O)[C@H](CC(C)C)NC(=O)CNC(=O)CNC(=O)[C@@H]2CCCN2C(=O)[C@H](CC(=O)O)NC(=O)[C@H](CC(C)C)NC(=O)[C@H]([C@@H](C)O)NC1=O` [SEQ ID NO: 554, VHRIPWCTLDPGGLQCAWLRQMGG] yielded a pIC50 (IL-7Rα) of 6.42.
`CSCC[C@H](NC(=O)[C@@H](N)Cc1ccc(O)cc1)C(=O)N[C@@H](C)C(=O)N[C@H]1CSSC[C@@H](C(=O)N[C@@H](CCCNC(=N)N)C(=O)N[C@@H](CC(C)C)C(=O)N[C@@H](CO)C(=O)O)NC(=O)[C@H](CC(C)C)NC(=O)[C@H](CO)NC(=O)[C@H](CC(C)C)NC(=O)CNC(=O)[C@H](CO)NC(=O)[C@H](CO)NC1=O` [compound 104] gave a pIC50 (IL-7Rα subunit) of over 5.00.
`CC[C@H](C)[C@H](NC(=O)[C@@H]1CSSC[C@H](NC(=O)[C@@H](N)CCC(N)=O)C(=O)N[C@@H](C(C)C)C(=O)N[C@@H](Cc2c[nH]cn2)C(=O)N[C@@H](Cc2c[nH]c3ccccc23)C(=O)N[C@@H](CC(=O)O)C(=O)N[C@@H](CC(C)C)C(=O)N[C@@H](CC(=O)O)C(=O)N[C@@H]([C@@H](C)O)C(=O)N[C@@H](CC(C)C)C(=O)N[C@@H](Cc2ccccc2)C(=O)NCC(=O)N1)C(=O)N[C@@H](CCCNC(=N)N)C(=O)N[C@@H](CCC(=O)O)C(=O)N[C@@H](CCC(N)=O)C(=O)N[C@@H](CC(C)C)C(=O)N[C@@H](CCC(=O)O)C(=O)N[C@@H](CC(C)C)C(=O)O` [compound 146] gave a pIC50 (IL-7Rα subunit) of over 5.00.
`CC(C)C[C@@H]1NC(=O)[C@H](CO)NC(=O)CNC(=O)[C@@H]2CCCN2C(=O)[C@H](CC(=O)O)NC(=O)[C@H](CC(C)C)NC(=O)[C@H]([C@@H](C)O)NC(=O)[C@@H](NC(=O)[C@H](Cc2c[nH]c3ccccc23)NC(=O)[C@@H]2CCCN2C(=O)[C@@H](NC(=O)CNC(=O)CN)C(C)C)CSSC[C@@H](C(=O)N[C@@H](C)C(=O)N[C@@H](Cc2c[nH]c3ccccc23)C(=O)N[C@@H](Cc2ccccc2)C(=O)O)NC(=O)[C@H](CCC(N)=O)NC1=O` [compound 458] gave a pIC50 (IL-7Rα subunit) of over 5.00.
“hIL-7: human interleukin-7, the natural cytokine, comparator in the functional assays” showed a pEC50 (CD4 and CD8 T-cells) of about 9.00.
